In patent US10953012B2, “Heterocyclic compounds for the inhibition of pask” (BioEnergenix LLC, priority 2011, dated 2021):

Assays:
CK2a2 = CK2a2 (Homo sapiens (Human), UniProt P19784); assay: Biochemical Assay for CK2 Activity; settings: 33P-ATP radiochemical assay; read-out: IC50 CK2 a2
Protocol: Biochemical Assay for CK2 Activity
Purified CK2a2 (NP_001887; human full-length protein, GST tagged) from insect cells (final concentration 1.2 nM) is added to freshly prepared Base Reaction Buffer containing 20 mM Hepes (pH 7.5), 10 mM MgCl2, 1 mM EGTA, 0.02% Brij35, 0.02 mg/ml BSA, 0.1 mM Na3VO4, 2 mM DTT, 1% DMSO and CK2 sub [RRRDDDSDDD] (20 μM final). Test compounds in DMSO are then added and the mixture, followed by delivery of ^33P-ATP (specific activity 0.01 μCi/μl final) to initiate the reaction. The kinase reaction is incubated for 120 min at room temperature. The entire reaction mixture is washed through onto a P81 Phosphocellulose paper and washed three times for 10 minutes in 75 mM phosphoric acid and once in methanol prior to drying and scintillation counting.

PASK [1] = molecular target: PASK (Homo sapiens (Human), UniProt Q96RG2); assay: PAS Kinase FRET Assay; format: biochemical; settings: TR-FRET assay; read-out: IC50 Kinase Domain
Chain of PASK (Homo sapiens (Human), UniProt Q96RG2) (Q96RG2 999-1251): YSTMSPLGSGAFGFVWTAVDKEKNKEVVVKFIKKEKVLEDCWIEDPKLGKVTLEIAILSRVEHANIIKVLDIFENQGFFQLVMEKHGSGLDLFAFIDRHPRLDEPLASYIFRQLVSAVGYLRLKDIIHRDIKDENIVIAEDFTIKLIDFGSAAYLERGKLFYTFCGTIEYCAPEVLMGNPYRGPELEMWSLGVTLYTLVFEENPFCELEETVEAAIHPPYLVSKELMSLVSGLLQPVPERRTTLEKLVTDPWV
Outline: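 Reaction buffer: 50 mM HEPES, 10 mM MgCl2, 1 mM EGTA, 2 mM DTT, 0.01% Tween-20. Test compounds (eleven-point series prepared at 4× final) preceded PASK and substrate/ATP. Reaction ran 2 h at 25 °C in the dark, then stopped. Phospho-ULight peptide detected by Eu-antibody TR-FRET, 665/615 nm ratio.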

PASK [2] = molecular target: PASK (UniProt #Q96RG2; residues 879-1323) (Homo sapiens (Human), UniProt Q96RG2); assay: PASK ATP Radiochemical Assay; format: biochemical; settings: 33P-ATP radiochemical assay; read-out: IC50 Kinase Domain
Chain of PASK (UniProt #Q96RG2; residues 879-1323) (Homo sapiens (Human), UniProt Q96RG2) (Q96RG2 879-1323): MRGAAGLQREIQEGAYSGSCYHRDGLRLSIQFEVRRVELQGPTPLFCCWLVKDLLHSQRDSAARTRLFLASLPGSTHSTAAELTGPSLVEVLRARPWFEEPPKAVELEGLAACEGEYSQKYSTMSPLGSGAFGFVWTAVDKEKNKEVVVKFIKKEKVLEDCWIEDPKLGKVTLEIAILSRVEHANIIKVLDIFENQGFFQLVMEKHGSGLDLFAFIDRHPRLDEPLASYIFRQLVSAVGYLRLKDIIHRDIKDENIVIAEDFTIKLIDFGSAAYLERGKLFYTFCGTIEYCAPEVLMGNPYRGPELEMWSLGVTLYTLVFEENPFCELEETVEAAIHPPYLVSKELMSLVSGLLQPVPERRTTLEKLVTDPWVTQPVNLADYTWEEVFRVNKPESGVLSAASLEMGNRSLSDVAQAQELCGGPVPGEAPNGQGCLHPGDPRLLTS
Protocol: PASK ATP Radiochemical Assay Purified PASK (UniProt #Q96RG2; human recombinant N-terminal GST tagged construct, residues 879-1323) from insect cells (final concentration 5 nM) is added to freshly prepared Base Reaction Buffer containing 20 mM HEPES (pH 7.5), 10 mM MgCl2, 1 mM EGTA, 0.02% Brij35, 0.02 mg/ml BSA, 0.1 mM Na3VO4, 2 mM DTT, 1% DMSO and Myelin Basic Protein (20 μM final). Test compounds in DMSO are then added and the mixture, followed by delivery of ^33P-ATP (specific activity 0.01 μCi/μl final) to initiate the reaction. The kinase reaction is incubated for 120 min at room temperature. The entire reaction mixture is washed through onto a P81 Phosphocellulose paper and washed three times for 10 minutes in 75 mM phosphoric acid and once in methanol prior to drying and scintillation counting.

Chain of CK2a2 (P19784 whole entry): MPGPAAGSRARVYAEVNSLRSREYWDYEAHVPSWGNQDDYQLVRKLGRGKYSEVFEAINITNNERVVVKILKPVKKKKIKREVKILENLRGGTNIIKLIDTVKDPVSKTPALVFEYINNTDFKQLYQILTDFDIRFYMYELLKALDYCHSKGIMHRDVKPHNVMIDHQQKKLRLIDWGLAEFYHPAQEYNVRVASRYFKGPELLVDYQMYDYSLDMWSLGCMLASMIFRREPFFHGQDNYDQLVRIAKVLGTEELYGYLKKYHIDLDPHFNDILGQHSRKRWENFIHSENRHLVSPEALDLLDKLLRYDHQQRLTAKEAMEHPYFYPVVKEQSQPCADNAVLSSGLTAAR

IC50 (CK2a2) [µM]	IC50 (PASK [1]) [µM]	IC50 (PASK [2]) [µM]	Structure (SMILES)
≤ 10	–	–	Cc1nn2c(=O)cc(-c3ccccc3)[nH]c2c1Cc1ccc(Cl)cc1 [Example 61]
≥ 10	–	–	Cc1nn2c(=O)cc(-c3ccc(OC(C)C)cc3)[nH]c2c1Cc1ccc(Cl)cc1 [Example 63, 3-(4-Chlorobenzyl)-5-(4-isopropoxyphenyl)-2-methylpyrazolo[1,5-a]pyrimidin-7(4H)-one]
≥ 10	–	–	COc1cccc(-c2cc(=O)n3nc(C)c(Cc4ccc(Cl)cc4)c3[nH]2)c1 [Example 64, 3-(4-Chlorobenzyl)-5-(3-methoxyphenyl)-2-methylpyrazolo[1,5-a]pyrimidin-7(4H)-one]
≥ 10	–	–	COC(=O)c1ccc(-c2cc(=O)n3nc(C)c(Cc4ccc(Cl)cc4)c3[nH]2)cc1 [Example 65, Methyl 4-(3-(4-chlorobenzyl)-2-methyl-7-oxo-4,7-dihydropyrazolo[1,5-a]pyrimidin-5-yl)benzoate]
≥ 10	–	–	Cc1nn2c(=O)cc(-c3ccc(C(N)=O)cc3)[nH]c2c1Cc1ccc(Cl)cc1 [Example 66, 4-(3-(4-Chlorobenzyl)-2-methyl-7-oxo-4,7-dihydropyrazolo[1,5-a]pyrimidin-5-yl)benzamide]
≥ 10	–	–	Cc1nn2c(=O)cc(-c3ccc(C(F)(F)F)cc3)[nH]c2c1Cc1ccc(Cl)cc1 [Example 67, 3-(4-Chlorobenzyl)-2-methyl-5-(4-(trifluoromethyl)phenyl)pyrazolo[1,5-a]pyrimidin-7(4H)-one]
≥ 10	–	–	COc1ccc(-c2cc(=O)n3nc(C)c(Cc4ccccc4)c3[nH]2)cc1OC [Example 68, 3-Benzyl-5-(3,4-dimethoxyphenyl)-2-methylpyrazolo[1,5-a]pyrimidin-7(4H)-one]
≥ 10	–	–	COc1ccc(-c2cc(=O)n3nc(C)c(Cc4ccc(Cl)cc4)c3[nH]2)cc1OC [Example 69, 3-(4-Chlorobenzyl)-5-(3,4-dimethoxyphenyl)-2-methylpyrazolo[1,5-a]pyrimidin-7(4H)-one]
≥ 10	≤ 10	–	COc1ccc(-c2cc(=O)n3nc(C)c(Cc4ccccc4Cl)c3[nH]2)cc1 [Example 70, 3-(2-Chlorobenzyl)-5-(4-methoxyphenyl)-2-methylpyrazolo[1,5-a]pyrimidin-7-(4H)-one]
≥ 10	≤ 10	≤ 10	CCCc1c(C)nn2c(=O)cc(-c3ccc(OC)cc3)[nH]c12 [Example 71, 5-(4-Methoxyphenyl)-2-methyl-3-propylpyrazolo[1,5-a]pyrimidin-7(4H)-one]
≤ 10	≤ 10	≤ 10	COc1ccc(-c2cc(=O)n3ncc(-c4cccnc4)c3[nH]2)cc1 [Example 72, 5-(4-Methoxyphenyl)-3-(pyridin-3-yl)pyrazolo[1,5-a]pyrimidin-7(4H)-one]
≤ 10	≤ 10	≤ 10	Cc1nn2c(=O)cc(-c3ccc4ncccc4c3)[nH]c2c1Cc1ccccc1 [Example 73, 3-Benzyl-2-methyl-5-(quinolin-6-yl)pyrazolo[1,5-a]pyrimidin-7(4H)-one]
≤ 10	≤ 10	≤ 10	Cc1nn2c(=O)cc(-c3ccc4c(c3)OCO4)[nH]c2c1Cc1cccc(Cl)c1 [Example 75, 3-(3-Chlorobenzyl)-5-(benzo[d][1,3]dioxol-5-yl)-2-methylpyrazolo[1,5-a]pyrimidin-7(4H)-one]
≤ 10	≤ 10	≤ 10	Cc1nn2c(=O)cc(-c3ccc4c(c3)OCO4)[nH]c2c1Cc1ccc(Cl)cc1 [Example 76, 3-(4-Chlorobenzyl)-5-(benzo[d][1,3]dioxol-5-yl)-2-methylpyrazolo[1,5-a]pyrimidin-7(4H)-one]
≤ 10	–	≤ 10	Cc1nn2c(=O)cc(-c3cccnc3)[nH]c2c1-c1ccc(F)cc1 [Example 77, 3-(4-Fluorophenyl)-2-methyl-5-(pyridin-3-yl)pyrazolo[1,5-a]pyrimidin-7(4H)-one]
≤ 10	–	≤ 10	O=c1cc(-c2ccccn2)[nH]c2c(-c3ccc(F)cc3)cnn12 [Example 79, 3-(4-Fluorophenyl)-5-(pyridin-2-yl)pyrazolo[1,5-a]pyrimidin-7(4H)-one]

IC50 (CK2a2) [µM]	IC50 (PASK [1]) [µM]	IC50 (PASK [2]) [µM]	Structure (SMILES)
≤ 10	≤ 10	≤ 10	Cc1nn2c(=O)cc(-c3ccc4c(c3)OCCO4)[nH]c2c1-c1ccc(F)cc1 [Example 81, 5-(2,3-Dihydrobenzo[b][1,4]dioxin-6-yl)-3-(4-fluorophenyl)-2-methylpyrazolo[1,5-a]pyrimidin-7(4H)-one]
≤ 10	≤ 10	–	O=c1cc(-c2ccc3c(c2)OCCO3)[nH]c2c(-c3ccc(N4CCCCC4)nc3)cnn12 [Example 89, 5-(2,3-Dihydrobenzo[b][1,4]dioxin-6-yl)-3-(6-(piperidin-1-yl)pyridin-3-yl)pyrazolo[1,5-a]pyrimidin-7(4H)-one]
≤ 10	≤ 10	–	O=c1cc(-c2ccc3c(c2)OCCO3)[nH]c2c(-c3cccc(F)c3)cnn12 [Example 91, 5-(2,3-Dihydrobenzo[b][1,4]dioxin-6-yl)-3-(3-fluorophenyl)pyrazolo[1,5-a]pyrimidin-7(4H)-one]
≤ 10	≤ 10	≤ 10	COc1cccc(-c2cnn3c(=O)cc(-c4ccc5c(c4)OCCO5)[nH]c23)c1 [Example 92, 5-(2,3-Dihydrobenzo[b][1,4]dioxin-6-yl)-3-(3-methoxyphenyl)pyrazolo[1,5-a]pyrimidin-7(4H)-one]
–	≤ 10	≤ 10	O=c1cc(-c2cc3ccccc3o2)[nH]c2c(-c3ccccn3)cnn12 [Example 93, 5-(Benzofuran-2-yl)-3-(pyridin-2-yl)pyrazolo[1,5-a]pyrimidin-7(4H)-one]
≤ 10	–	≤ 10	O=c1cc(-c2ccc3cc[nH]c3c2)[nH]c2c(-c3ccccc3)cnn12 [Example 95, 5-(1H-Indol-6-yl)-3-phenylpyrazolo[1,5-a]pyrimidin-7(4H)-one]
≤ 10	≤ 10	≤ 10	O=c1cc(-c2ccc3c(c2)CCO3)[nH]c2c(-c3ccccn3)cnn12 [Example 96, 5-(2,3-Dihydrobenzofuran-5-yl)-3-(pyridin-2-yl)pyrazolo[1,5-a]pyrimidin-7(4H)-one]
≤ 10	≤ 10	≤ 10	O=c1cc(-c2ccc3occc3c2)[nH]c2c(-c3ccccc3)cnn12 [Example 97, 5-(Benzofuran-5-yl)-3-phenylpyrazolo[1,5-a]pyrimidin-7(4H)-one]
≤ 10	≤ 10	≤ 10	O=c1cc(-c2ccc3c(c2)CCO3)[nH]c2c(-c3ccccc3)cnn12 [Example 98, 5-(2,3-Dihydrobenzofuran-5-yl)-3-phenylpyrazolo[1,5-a]pyrimidin-7(4H)-one]
≤ 10	≤ 10	≤ 10	O=c1cc(-c2ccc3c(c2)CCO3)[nH]c2c(-c3cccnc3)cnn12 [Example 99, 5-(2,3-Dihydrobenzofuran-5-yl)-3-(pyridin-3-yl)pyrazolo[1,5-a]pyrimidin-7(4H)-one]
≤ 10	≤ 10	≤ 10	O=c1cc(-c2ccc3c(c2)OCO3)[nH]c2c(-c3cccnc3)c(O)nn12 [Example 100, 5-(Benzo[d][1,3]dioxol-5-yl)-2-hydroxy-3-(pyridin-3-yl)pyrazolo[1,5-a]pyrimidin-7(4H)-one]
≤ 10	≤ 10	–	O=c1cc(-c2ccc3c(c2)OCCO3)[nH]c2c(-c3cccnc3)c(O)nn12 [Example 101, 5-(2,3-Dihydrobenzo[b][1,4]dioxin-6-yl)-2-hydroxy-3-(pyridin-3-yl)pyrazolo[1,5-a]pyrimidin-7(4H)-one]
≤ 10	≤ 10	≤ 10	O=c1cc(-c2ccc3c(c2)OCCO3)[nH]c2c(-c3ccccn3)c(O)nn12 [Example 102, 5-(2,3-Dihydrobenzo[b][1,4]dioxin-6-yl)-2-hydroxy-3-(pyridin-2-yl)pyrazolo[1,5-a]pyrimidin-7(4H)-one]
≤ 10	≤ 10	≤ 10	O=c1cc(-c2ccc3c(c2)OCCO3)[nH]c2c(-c3ccccc3)c(O)nn12 [Example 103, 5-(2,3-Dihydrobenzo[b][1,4]dioxin-6-yl)-2-hydroxy-3-phenylpyrazolo[1,5-a]pyrimidin-7(4H)-one]
≤ 10	–	–	O=c1cc(-c2cc3ccccc3o2)[nH]c2c(-c3ccccn3)cnn12 [Example 149, 5-(Benzofuran-2-yl)-3-(pyridin-2-yl)pyrazolo[1,5-a]pyrimidin-7(4H)-one]
